From patent publication US12577702B2, “Oligonucleotide encoded chemical libraries, related systems, devices, and methods for detecting, analyzing, quantifying, and testing biologics/genetics” (Plexium, Inc., priority 2020, dated 2026)

Molecular target: Cathepsin-D protease (Homo sapiens, UniProt P07339)
Assay: Protease inhibition assay in picowells with compound photo-released from beads
Type: biochemical
Conditions: compound released from 10 μm TentaGel bead by UV (365 nm, 77 J/cm^2) to approximately 13 μM; incubated 30 min, 37° C.; λex=480 nm, λem=525 nm
From the text: Reagents were placed into wells at 4 degrees C. Ultraviolet light at 365 nm was used to cleave the fluorophore from the bead, thereby releasing the fluorophore and separating it from the quencher. […] This setup with bead-bound pepstatin-A and the aspartyl protease can serve as a positive control.
This bead population was introduced into picowells, then buffer exchanged into a protease inhibition assay, including Cathepsin-D protease and Peptide Q-Fluor substrate (λex=480 nm, λem=525 nm). Wells were encapsulated by air, and entire slide exposed to UV (365 nm, 77 J/cm^2), cleaving the photolabile linker, releasing the compound to reach approximately 13 μM. The flowcell was incubated (30 min, 37° C.).
Greater fluorescence means that the enzyme is more catalytically active. […] Images were captured following UV release and Cathepsin-D assay incubation (λex=480 nm, λem=525 nm). Wells containing positive control beads could be identified spectrally by Cy5 fluorophore (λex=645 nm, λem=665 nm, orange false color).

Sequence of Cathepsin-D protease (P07339 65-412): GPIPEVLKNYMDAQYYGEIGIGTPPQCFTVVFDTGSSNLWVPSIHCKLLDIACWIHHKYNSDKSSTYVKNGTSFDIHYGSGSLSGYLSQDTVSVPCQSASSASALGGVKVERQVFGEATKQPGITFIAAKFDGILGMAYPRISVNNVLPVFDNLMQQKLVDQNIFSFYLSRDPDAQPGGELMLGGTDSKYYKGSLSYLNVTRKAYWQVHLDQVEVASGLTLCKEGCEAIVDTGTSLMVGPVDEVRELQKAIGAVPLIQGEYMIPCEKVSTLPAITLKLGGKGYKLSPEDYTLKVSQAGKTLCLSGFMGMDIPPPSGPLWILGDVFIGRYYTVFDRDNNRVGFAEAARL

CC(C)[C@H](NC(=O)OCC1c2ccccc2-c2ccccc21)C(=O)O [negative control beads, Fmoc-Valine]
Cathepsin-D inhibition (fluorescence of Peptide Q-Fluor substrate in well): no Cathepsin-D inhibition
